In patent publication US9910031B2, “Compositions and methods for modulating c-Rel-dependent cytokine production” (Synta Pharmaceuticals Corporation, priority 2003, dated 2018):

System: IL-12 p40
Assay: IL-12 p40 production in human monocyte-derived dendritic cells
Assay type: cell-based
Conditions: up to 10 μM
Procedure: Although c-Rel has a role in the expression of both p35 and p40 in monocytes and macrophages as well as p35 in dendritic cells (DCs), p40 expression in dendritic cells is c-Rel-independent (Grumont et al. J. Exp. Med. 2001; 194:1021-1031). If Compound 2 is acting through c-Rel, this drug should inhibit both p40 and p70 production by PBMCs. However, Compound 2 should inhibit the production of p70 (through inhibition of p35) in DCs, but should not inhibit p40 in DCs. This was tested by generating monocyte-derived dendritic cells according to the following method. Human PBMC at 1×10^7 cells/ml were suspended in serum-free DMEM and incubated for 2 hrs at 37° C. under 5% CO2. The non-adherent cells then were removed by washing with PBS. The adherent cells were cultured in RPMI-1640 medium containing rhIL-4 (100 U/ml) and rhGM-CSF (1000 U/ml) for 6-7 days. The half volume fresh media and full-volume fresh cytokines were added every other day. The cells were then primed with IFN-γ (100 U/ml) and followed by 0.01% SAC or 1 μg/ml LPS, in the presence of different concentrations of Compound 2 or other compounds. The test compounds were prepared in DMSO and the final DMSO concentration was adjusted to 0.25% in all cultures, including the compound-free control. Cell-free supernatants were taken 18 h later for the measurement of cytokines.

Cc1cccc(C=NNc2cc(N3CCOCC3)nc(OCCc3ccccn3)n2)c1 [Compound 2, N-(3-methyl-benzylidene)-N′-[6-morpholin-4-yl-2-(2-pyridin-2-yl-ethoxy)-pyrimidin-4-yl]-hydrazine]
p40 production in human DCs: no inhibition
